Test results published in publication PMC11995724, “Antibiotic target discovery by integrated phenotypic and activity-based profiling of electrophilic fragments” (Cell chemical biology, 2025).
Counter-ions that a name gives are not always drawn.

Test: in vitro
Settings: human, hek293t cells

| Compound | viability at 48 h, 25 µM |
| --- | --- |
| Cc1cc(CC(C)NC(=O)C(C)Cl)n(-c2ccccc2)n1 (centres unmarked) [7-H21, 2-chloro-N-[1-(3-methyl-1-phenyl-1H-pyrazol-5-yl)propan-2-yl]propanamide] | 80.1% |
| C=CC(=O)N1CCCCC1 [1-C12, 1-(piperidin-1-yl)prop-2-en-1-one] | 98.4% |
| C=CC(=O)N(C)CC(=O)N1CCCCC1c1nc(C)no1 (centres unmarked) [3-K17, N-methyl-N-{2-[2-(3-methyl-1,2,4-oxadiazol-5-yl)piperidin-1-yl]-2-oxoethyl}prop-2-enamide] | 47.9% |
| C=CC(=O)Nc1ccc(C(=O)N2CCCCC2c2noc(C)n2)cc1 (centres unmarked) [2-C20, N-{4-[2-(5-methyl-1,2,4-oxadiazol-3-yl)piperidine-1-carbonyl]phenyl}prop-2-enamide] | 77.3% |
| O=C(CCl)C1CC1(Cl)Cl (centres unmarked) [10-K09, 2-chloro-1-(2,2-dichlorocyclopropyl)ethan-1-one] | 1.74% |
| C=CC(=O)Nc1cccc2c1CCN2C(C)=O [1-F05, N-(1-acetyl-2,3-dihydro-1H-indol-4-yl)prop-2-enamide] | 110% |
| CC(Cl)C(=O)c1ccc2c(c1)CCC2 (centres unmarked) [10-M08, 2-chloro-1-(2,3-dihydro-1H-inden-5-yl)propan-1-one] | 95.2% |
| Cc1nn(-c2ccccc2)c(C)c1CNC(=O)CCl [6-I08, 2-chloro-N-[(3,5-dimethyl-1-phenyl-1H-pyrazol-4-yl)methyl]acetamide] | 2.35% |
| CC(C)C(C(=O)O)N1C(=O)C=CC1=O (centres unmarked) [10-I22, 2-(2,5-dioxo-2,5-dihydro-1H-pyrrol-1-yl)-3-methylbutanoic acid] | 106% |
| N#CC(=Cc1c(Cl)cccc1Cl)C(=O)NCc1ccco1 [9-K06, 2-cyano-3-(2,6-dichlorophenyl)-N-[(furan-2-yl)methyl]prop-2-enamide] | 29.2% |
| O=C(CCl)Nc1ccc(S(=O)(=O)Nc2nccs2)cc1 [4-B14, 2-chloro-N-{4-[(1,3-thiazol-2-yl)sulfamoyl]phenyl}acetamide] | 1.19% |
| C=CC(=O)N1CCCCC1C1CCCO1 (centres unmarked) [2-L21, 1-[2-(oxolan-2-yl)piperidin-1-yl]prop-2-en-1-one] | 66.2% |
| CC(Cl)C(=O)N1CCNC(=O)C1c1c(F)cccc1Cl (centres unmarked) [6-D07, 3-(2-chloro-6-fluorophenyl)-4-(2-chloropropanoyl)piperazin-2-one] | 107% |
| CCSc1nnc(NC(=O)CCl)s1 [5-N22, 2-chloro-N-[5-(ethylsulfanyl)-1,3,4-thiadiazol-2-yl]acetamide] | 7.36% |
| CCCn1c(C)cc(C=C(C#N)C(=O)Nc2ccc3c(c2)OCO3)c1C [9-G07, N-(1,3-dioxaindan-5-yl)-2-cyano-3-(2,5-dimethyl-1-propyl-1H-pyrrol-3-yl)prop-2-enamide] | 100% |
| N#CC(=Cc1csc(-c2ccsc2)n1)C(=O)NC1CC1 [9-N18, 2-cyano-N-cyclopropyl-3-[2-(thiophen-3-yl)-1,3-thiazol-4-yl]prop-2-enamide] | 110% |
| COc1ccc(NC(=O)C(C#N)=Cc2cccc(O)c2)cc1Cl [9-C08, N-(3-chloro-4-methoxyphenyl)-2-cyano-3-(3-hydroxyphenyl)prop-2-enamide] | 102% |
| COc1ccc(NC(=O)CCl)cc1S(=O)(=O)N1CCOCC1 [4-D15, 2-chloro-N-[4-methoxy-3-(morpholine-4-sulfonyl)phenyl]acetamide] | 0.627% |
| CC(Cl)C(=O)NC1CCc2cc(C#N)ccc21 (centres unmarked) [5-N17, 2-chloro-N-(5-cyano-2,3-dihydro-1H-inden-1-yl)propanamide] | 105% |
| CC(CO)N(Cc1ccccc1Cl)C(=O)CCl (centres unmarked) [6-D17, 2-chloro-N-[(2-chlorophenyl)methyl]-N-(1-hydroxypropan-2-yl)acetamide] | 1.39% |
| C=CC(=O)N1CCC(C(=O)Nc2cnn(COC)c2)CC1 [2-H10, N-[1-(methoxymethyl)-1H-pyrazol-4-yl]-1-(prop-2-enoyl)piperidine-4-carboxamide] | 79% |
| N#CC(=Cc1ccccc1OC(F)F)C(=O)Nc1ccccc1Cl [9-M21, N-(2-chlorophenyl)-2-cyano-3-[2-(difluoromethoxy)phenyl]prop-2-enamide] | 119% |
| N#CC(=Cc1ccc(O)cc1)C(=O)Nc1cc(Cl)ccc1Cl [9-F03, 2-cyano-N-(2,5-dichlorophenyl)-3-(4-hydroxyphenyl)prop-2-enamide] | 87% |
| N#CC(=Cc1ccc(F)cc1)C(=O)Nc1ccccc1C(F)(F)F [8-I18, 2-cyano-3-(4-fluorophenyl)-N-[2-(trifluoromethyl)phenyl]prop-2-enamide] | 81.7% |
| N#CC(=Cc1ccco1)C(=O)NCc1ccc(-c2cccnc2)cc1 [9-F16, 2-cyano-3-(furan-2-yl)-N-{[4-(pyridin-3-yl)phenyl]methyl}prop-2-enamide] | 100% |
| CC(Cl)C(=O)Nc1ccc(Cl)cc1F (centres unmarked) [4-C14, 2-chloro-N-(4-chloro-2-fluorophenyl)propanamide] | 58.6% |
| Cc1cccc(CC(=O)CCl)c1 [10-I19, 1-chloro-3-(3-methylphenyl)propan-2-one] | 68.3% |

| Compound | viability at 48 h, 25 µM |
| --- | --- |
| N#CC(=Cc1cccc(Oc2ccccc2)c1)C(=O)NC(N)=O [8-D07, {2-cyano-2-[(3-phenoxyphenyl)methylidene]acetyl}urea] | 134% |
| CCN(CC)C(=O)c1ccc(NC(=O)CCl)cc1 [4-C05, 4-(2-chloroacetamido)-N,N-diethylbenzamide] | 0.463% |
| C=CC(=O)Nc1ccc(OC)c(COC)c1 [3-B06, N-[4-methoxy-3-(methoxymethyl)phenyl]prop-2-enamide] | 89.7% |
| CSc1ccc(C=C(C#N)C(=O)N2CCCC2)cc1 [8-I11, 3-[4-(methylsulfanyl)phenyl]-2-(pyrrolidine-1-carbonyl)prop-2-enenitrile] | 106% |
| CCc1ccc(OC(C)C(=O)N2CCN(C(=O)C(C)Cl)CC2)cc1 (centres unmarked) [6-H16, 1-[4-(2-chloropropanoyl)piperazin-1-yl]-2-(4-ethylphenoxy)propan-1-one] | 105% |
| CC(Cl)C(=O)NCC1c2ccccc2C(=O)N1Cc1ccccc1 (centres unmarked) [6-H20, N-[(2-benzyl-3-oxo-2,3-dihydro-1H-isoindol-1-yl)methyl]-2-chloropropanamide] | 107% |
| N#CC(=Cc1cnn(Cc2ccccc2)c1)C(=O)Nc1nccs1 [9-M03, 3-(1-benzyl-1H-pyrazol-4-yl)-2-cyano-N-(1,3-thiazol-2-yl)prop-2-enamide] | 111% |
| COc1cc(C=C(C#N)C(=O)Nc2ccc(Cl)cc2)cc(OC)c1 [8-K16, N-(4-chlorophenyl)-2-cyano-3-(3,5-dimethoxyphenyl)prop-2-enamide] | 81.7% |
| CC(Cl)C(=O)N1CCC(Oc2ccc(C3CC3)cn2)C1 (centres unmarked) [7-A18, 2-chloro-1-{3-[(5-cyclopropylpyridin-2-yl)oxy]pyrrolidin-1-yl}propan-1-one] | 60.4% |
| COc1ccc(C2=NN(C(=O)CCl)C(c3cccc(C)c3)C2)cc1 (centres unmarked) [4-G20, 2-chloro-1-[3-(4-methoxyphenyl)-5-(3-methylphenyl)-4,5-dihydro-1H-pyrazol-1-yl]ethan-1-one] | -0.0034% |
| C=CC(=O)N1CCC(C(=O)N2CCC(CC(N)=O)C2)CC1 (centres unmarked) [2-J14, 2-{1-[1-(prop-2-enoyl)piperidine-4-carbonyl]pyrrolidin-3-yl}acetamide] | 65% |
| C=CC(=O)NC(C)(C)c1ccc(S(N)(=O)=O)cc1F [2-P17, N-[2-(2-fluoro-4-sulfamoylphenyl)propan-2-yl]prop-2-enamide] | 58.6% |
| C=CC(=O)Nc1ccc(C(N)=O)nc1OC [1-E18, 6-methoxy-5-(prop-2-enamido)pyridine-2-carboxamide] | 69.6% |
| C=CC(=O)NCC(F)(F)C1(OC)CCC1 [3-L07, N-[2,2-difluoro-2-(1-methoxycyclobutyl)ethyl]prop-2-enamide] | 82.7% |
| Cc1cc(C(=O)CCl)c(C)n1-c1ccc(C(F)(F)F)cc1 [10-J14, 2-chloro-1-{2,5-dimethyl-1-[4-(trifluoromethyl)phenyl]-1H-pyrrol-3-yl}ethan-1-one] | 0.425% |
| Cc1nn(C)c(C)c1C=C(C#N)C(=O)Nc1ccccc1F [9-I07, 2-cyano-N-(2-fluorophenyl)-3-(1,3,5-trimethyl-1H-pyrazol-4-yl)prop-2-enamide] | 122% |
| O=[N+]([O-])c1ccccc1S(=O)(=O)N1CCSSCC1 [10-N09, 5-(2-nitrobenzenesulfonyl)-1,2,5-dithiazepane] | 117% |
| CC1(C)C(=O)Nc2ccc(C(=O)CCl)cc21 [10-N21, 5-(2-chloroacetyl)-3,3-dimethyl-2,3-dihydro-1H-indol-2-one] | 73.1% |
| N#CCCSc1ccccc1NC(=O)CCl [6-N12, 2-chloro-N-{2-[(2-cyanoethyl)sulfanyl]phenyl}acetamide] | 1.44% |
| CC1CCN(Cc2csc(NC(=O)CCl)n2)CC1 [6-E17, 2-chloro-N-{4-[(4-methylpiperidin-1-yl)methyl]-1,3-thiazol-2-yl}acetamide hydrochloride] | 0.0269% |
| CN(C)C(CNC(=O)CCl)c1ccccc1 (centres unmarked) [4-B21, 2-chloro-N-[2-(dimethylamino)-2-phenylethyl]acetamide hydrochloride] | 79.8% |
| N#CC(=Cc1cccs1)C(=O)Nc1ccc(C(=O)O)cc1 [8-A04, 4-[2-cyano-3-(thiophen-2-yl)prop-2-enamido]benzoic acid] | 71.7% |
| Cc1ccccc1CN1CCC(NC(=O)CCl)CC1 [6-L08, 2-chloro-N-{1-[(2-methylphenyl)methyl]piperidin-4-yl}acetamide hydrochloride] | 113% |
| CC(Cl)C(=O)N1CCOC(c2ccnc(N(C)C)n2)C1 (centres unmarked) [6-L05, 2-chloro-1-{2-[2-(dimethylamino)pyrimidin-4-yl]morpholin-4-yl}propan-1-one] | 99.1% |
| CC(=O)N1CCc2cc(C(=O)C(C)Cl)ccc21 (centres unmarked) [10-L22, 1-(1-acetyl-2,3-dihydro-1H-indol-5-yl)-2-chloropropan-1-one] | 82.9% |
| O=C(CCl)Nc1cc(C2CCCC2)nn1-c1ccccc1 [4-J03, 2-chloro-N-(3-cyclopentyl-1-phenyl-1H-pyrazol-5-yl)acetamide] | 0.358% |
